Test [1] relates to mice. Description: Hot Plate Assay in mice. The class given is in vivo. The protocol: (§1) Antinociceptive activity of compounds of the invention was determined in vivo in a PBQ writhing model and in the hot plate test in rodents. Inhibition of PBQ (phenyl-.rho.-benzoquinone) induced writhing in mice is an assessment of both central and peripherally-mediated analgesia. For experimental protocol see Sigmund et al., Proc. Soc. Ex. Biol. Med., 95, p. 729 (1957) which is incorporated herein by reference. Centrally-mediated analgesia was determined by the inhibition of a hot plate response in mice. For experimental protocol see G. Woolfe and A. Macdonald, J. Pharmacol. Exp. Ther., 80, p. 300 ([…]) which is incorporated herein by reference. Assays measuring opioid receptor binding affinities for μ, δ and κ receptors as well as GPI and MVD assays were determined through experimental protocol set out in Schiller et al., Biophys. Res. Commun., 85, p. 1322 (1975); Rothman et al, Peptides, Vol 11, pp 311-331, 1990; Kaffa et al, Peptides 15(3), 401-404, 1994; Fowler et al, Neurochem. Int 24(5), 401-426, 1994; and Leslie F., Pharmacological Review 39(3), 197-249, 1987 incorporated herein by reference.
For this test, CD #1 male mice (Charles River) weighing between 20-25 grams were used. The mice were weighed, identified, and randomized into groups of 10.
The mice were usually treated by subcutaneous injection of the compound (or the standard or vehicle) or by oral gavage.
The mice were evaluated individually for a latency reaction time on the hot plate. The temperature of the hot plate (Sorel, model DS37) was set at 55° C. […] The reaction time was recorded when one of these signs was noted. The cut off for latency response was 15 seconds so as to prevent damage to the paw tissue. […] The time intervals are typically 30, 60 or 120 minutes (or other).
For each time reading, the average reaction time of the control group was multiplied by 1.5. The reaction time of each treated animal was compared to the "control average×1.5".
A general note: Hot-plate and tail-flick tests time the reaction to a heat stimulus.

The test system of test [2] is mice. In words: Phenylquinone (PBQ) Writhing Assay. The class given is in vivo. Here is the method: as §1
Phenylquinone Writhing Assay
The test was performed using CD #1 male mice (Charles River) weighing between 19 and 25 g. Animals were maintained in constant conditions of light, temperature and humidity. The animals were acclimatized for three days prior to experimentation. […]
Background: An intraperitoneal irritant provokes the stretching counted in writhing tests.

This note sets out measurements from patent US6054474A, “Heterocyclic compounds for the treatment of pain and use thereof” (Biochem Pharma, Inc., priority 1995, dated 2000).

Regarding `CC12CCCCSC(Cc3ccc(O)cc31)C2N` (centres unmarked) [compound #9, 5,6,7,8,9,11,12-heptahydro-3-hydroxy-5-methyl-10-thia-5,11 methanobenzocyclodecen-13-amine], in the test on mice [1] (2.5 mg/kg, subcutaneous, after 15 minutes (FIG. 1)), the latency response time result was “almost maximum”. In the test with mice [1] (5 mg/kg, subcutaneous (FIG. 1), control approximately 7 seconds), the reaction time entry is on record as “about 19 seconds”. The “latency response to radiant heat, dose dependence” value in the test on mice [1] (subcutaneous (FIG. 1)) is reported as “dose dependent latency response”. Besides, the “inhibition of the writhing response (PBQ)” value in the test on mice [2] (oral administration one hour prior to PBQ (FIG. 2)) and in the test with mice [2] (s.c. administration twenty minutes prior to PBQ (FIG. 3)) was “dose-dependent inhibition” each time.
